Experimental data as given in US5089623A, “Certain imidate insecticides” (Imperial Chemical Industries Plc, priority 1990, dated 1992).

Columns and labels:
Assay type in all cases: in vivo
[1] = system: Aster Leafhopper [Macrosteles fascifrens (Stal)]; test: Aster leafhopper test (LH); conditions: adults/nymphs, 48 hours, percent in solution
[2] = system: Cabbage Looper [Trichoplusia ni (Hubner)]; test: Cabbage looper test (CL); conditions: second-instar larvae, 3-5 days, percent in solution
[3] = system: Maize weevil [Sitophilus Zeamais (Motschulsky)]; test: Maize weevil test (MW); conditions: adult weevils, treated corn seeds, 48 hours, percent in solution
Method in brief: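 Adult weevils (10) were placed with four corn seeds that had been dipped 2-3 s in compound dissolved in 50:50 acetone:water, then dried, and held at about 25° C. Mortality was scored at 48 h. LC50 was taken from dosage-mortality curves and expressed as percent compound in solution, from a 0.01% top concentration.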

[4] = system: Housefly [Musca domestica]; test: Housefly insecticidal test (HF); conditions: per 25 female houseflies, 48 hours
[5] = system: Tobacco Budworm [Heliothis virescens (Fabricius)] eggs; test: Tobacco budworm egg test (TBW-E); conditions: percent in solution

CCc1ccc(N=C(OCc2ccc(F)c(Oc3ccccc3)c2)C(C)C)cc1 [Compound 360]
LC50 LH [1]: < 0.05%
LC50 CL [2]: 0.006%
LC50 MW [3]: > 0.01%
LC50 HF [4]: < 100 µg
LC50 TBW E [5]: > 0.1%

CC(C)C(=Nc1cccc(I)c1)OCc1cccc(Oc2ccc(F)cc2)c1 [Compound 255]
LC50 LH [1]: 0.0005%
LC50 CL [2]: 0.00017%
LC50 MW [3]: > 0.01%
LC50 HF [4]: 16 µg
LC50 TBW E [5]: 0.075%

CC(C)C(=Nc1ccc2c(c1)OCO2)OCc1cccc(Oc2ccc(Cl)cc2)c1 [Compound 240]
LC50 LH [1]: > 0.05%
LC50 CL [2]: 0.0003%
LC50 MW [3]: > 0.01%
LC50 HF [4]: 14 µg
LC50 TBW E [5]: 0.04%

Cc1ccc(N=C(OCc2cccc(Oc3ccccc3)c2)C(C)C)cc1 [Compound 156]
LC50 LH [1]: > 0.05%
LC50 CL [2]: 0.004%
LC50 MW [3]: > 0.01%
LC50 HF [4]: 10 µg
LC50 TBW E [5]: 0.05%

CC(C)C(=Nc1ccc(F)c(Cl)c1)OCc1cc(Oc2ccc(Cl)cc2)ccn1 [Compound 516]
LC50 LH [1]: > 0.05%
LC50 CL [2]: 0.008%
LC50 MW [3]: > 0.01%
LC50 HF [4]: > 100 µg
LC50 TBW E [5]: > 0.1%

CC(C)C(=Nc1ccc(Br)cc1F)OCc1cccc(Oc2ccc(F)cc2)c1 [Compound 351]
LC50 LH [1]: > 0.05%
LC50 CL [2]: 0.0007%
LC50 MW [3]: > 0.01%
LC50 HF [4]: 26 µg
LC50 TBW E [5]: > 0.1%

COc1cccc(N=C(OCc2cccc(Oc3ccccc3)c2)C(C)C)c1 [Compound 143]
LC50 LH [1]: 0.006%
LC50 CL [2]: 0.002%
LC50 MW [3]: > 0.01%
LC50 HF [4]: 10 µg
LC50 TBW E [5]: < 0.1%

Cc1cccc(N=C(OCc2cccc(Oc3ccccc3)c2)C(C)C)c1 [Compound 155]
LC50 LH [1]: > 0.05%
LC50 CL [2]: 0.004%
LC50 MW [3]: > 0.01%
LC50 HF [4]: 9 µg
LC50 TBW E [5]: 0.06%

CC(C)C(=Nc1ccc(F)cc1)OCCc1cccc(Oc2ccccc2)c1 [Compound 456]
LC50 LH [1]: > 0.05%
LC50 CL [2]: 0.017%
LC50 MW [3]: > 0.01%
LC50 HF [4]: > 100 µg
LC50 TBW E [5]: > 0.05%

CC(C)C(=Nc1cccc(C(F)(F)F)c1)OCc1cccc(Nc2ccc(F)cc2)c1 [Compound 513]
LC50 LH [1]: > 0.05%
LC50 CL [2]: 0.007%
LC50 MW [3]: > 0.01%
LC50 HF [4]: 81 µg
LC50 TBW E [5]: > 0.1%

CSc1ccc(Oc2cccc(COC(=Nc3ccc(F)c(Cl)c3)C(C)C)c2)cc1 [Compound 256]
LC50 LH [1]: > 0.05%
LC50 CL [2]: 0.007%
LC50 MW [3]: > 0.01%
LC50 HF [4]: > 100 µg
LC50 TBW E [5]: 0.1%

CC(C)C(=Nc1ccccc1Cl)OCc1cccc(Oc2ccccc2)c1 [Compound 17]
LC50 LH [1]: > 0.05%
LC50 CL [2]: 0.03%
LC50 MW [3]: > 0.01%
LC50 HF [4]: 75 µg
LC50 TBW E [5]: > 0.1%

CC(C)C(=Nc1ccc(F)c([N+](=O)[O-])c1)OCc1cccc(Oc2ccccc2)c1 [Compound 293]
LC50 LH [1]: > 0.05%
LC50 CL [2]: 0.0045%
LC50 MW [3]: > 0.01%
LC50 HF [4]: 19 µg
LC50 TBW E [5]: > 0.1%

COc1ccc(N=C(OCc2cccc(Oc3ccccc3)c2)C(C)C)cc1 [Compound 160]
LC50 LH [1]: 0.05%
LC50 CL [2]: 0.005%
LC50 MW [3]: > 0.01%
LC50 HF [4]: 7 µg
LC50 TBW E [5]: 0.09%

CC(C)C(=Nc1ccccc1)OCc1cccc(Oc2ccccc2)c1 [Compound 43]
LC50 LH [1]: > 0.05%
LC50 CL [2]: 0.018%
LC50 MW [3]: > 0.01%
LC50 HF [4]: 7 µg
LC50 TBW E [5]: 0.05%

CC(C)C(=Nc1ccc(F)c(Cl)c1)OCc1cccc(Oc2ccc(F)c(F)c2)c1 [Compound 217]
LC50 LH [1]: > 0.05%
LC50 CL [2]: 0.00006%
LC50 MW [3]: 0.0084%
LC50 HF [4]: 8 µg
LC50 TBW E [5]: 0.015%

CC(C)C(=Nc1ccc(F)c(Cl)c1)OCc1cccc(Nc2ccc(F)cc2)c1 [Compound 512]
LC50 LH [1]: > 0.05%
LC50 CL [2]: 0.003%
LC50 MW [3]: > 0.01%
LC50 HF [4]: 35 µg
LC50 TBW E [5]: > 0.1%

CC(C)C(=Nc1ccc(C(F)(F)F)cc1)OCc1cccc(Oc2ccc(Cl)cc2)c1 [Compound 365]
LC50 LH [1]: < 0.05%
LC50 CL [2]: 0.00025%
LC50 MW [3]: > 0.01%
LC50 HF [4]: > 100 µg
LC50 TBW E [5]: 0.038%

COc1ccc(N=C(OCc2ccc(F)c(Oc3ccc(F)cc3)c2)C(C)C)cc1OC [Compound 363]
LC50 LH [1]: > 0.05%
LC50 CL [2]: > 0.1%
LC50 MW [3]: > 0.01%
LC50 HF [4]: < 100 µg
LC50 TBW E [5]: > 0.1%

CC(C)C(=Nc1ccc(-c2ccccc2)cc1)OCc1cccc(Oc2ccccc2)c1 [Compound 186]
LC50 LH [1]: > 0.05%
LC50 CL [2]: 0.008%
LC50 MW [3]: > 0.01%
LC50 HF [4]: > 100 µg
LC50 TBW E [5]: > 0.1%

CC(C)C(=Nc1ccccc1C(F)(F)F)OCc1cccc(Oc2ccccc2)c1 [Compound 72]
LC50 LH [1]: > 0.05%
LC50 CL [2]: 0.08%
LC50 MW [3]: > 0.01%
LC50 HF [4]: > 100 µg
LC50 TBW E [5]: > 0.1%

CC1(C)C(C(=Nc2ccc(F)c(Cl)c2)OCc2cccc(Oc3ccccc3)c2)C1(C)C [Compound 124]
LC50 LH [1]: > 0.05%
LC50 CL [2]: 0.01%
LC50 MW [3]: > 0.01%
LC50 HF [4]: 17 µg
LC50 TBW E [5]: > 0.1%

CC(C)C(=Nc1ccc(F)c(Cl)c1)OCc1cccc(Cc2ccccc2)c1 [Compound 541]
LC50 LH [1]: > 0.05%
LC50 CL [2]: 0.001%
LC50 MW [3]: > 0.01%
LC50 HF [4]: < 100 µg
LC50 TBW E [5]: > 0.1%

C=C(C)C(=Nc1ccc(Cl)cc1)OCc1cccc(Oc2ccccc2)c1 [Compound 6]
LC50 LH [1]: > 0.05%
LC50 CL [2]: 0.02%
LC50 MW [3]: > 0.01%
LC50 HF [4]: 17 µg
LC50 TBW E [5]: 0.015%

Cc1cc(N=C(OCc2ccc(F)c(Oc3ccccc3)c2)C(C)C)ccc1Br [Compound 358]
LC50 LH [1]: < 0.05%
LC50 CL [2]: > 0.1%
LC50 MW [3]: > 0.01%
LC50 HF [4]: < 100 µg
LC50 TBW E [5]: > 0.1%

CC(C)C(=Nc1ccccc1Br)OCc1cccc(Oc2ccccc2)c1 [Compound 132]
LC50 LH [1]: > 0.05%
LC50 CL [2]: 0.025%
LC50 MW [3]: > 0.01%
LC50 HF [4]: 65 µg
LC50 TBW E [5]: > 0.1%

CC(C)C(=Nc1ccc(F)c(Cl)c1)OCC#CCOc1ccccc1 [Compound 534]
LC50 LH [1]: > 0.05%
LC50 CL [2]: < 0.1%
LC50 MW [3]: > 0.01%
LC50 HF [4]: > 100 µg
LC50 TBW E [5]: > 0.1%

CSc1cccc(N=C(OCc2ccc(F)c(Oc3ccccc3)c2)C(C)C)c1 [Compound 362]
LC50 LH [1]: > 0.05%
LC50 CL [2]: > 0.1%
LC50 MW [3]: > 0.01%
LC50 HF [4]: < 100 µg
LC50 TBW E [5]: > 0.1%

CC(C)C(=Nc1cccc(C(F)(F)F)c1)OCc1cccc(Oc2ccc(Cl)cn2)c1 [Compound 518]
LC50 LH [1]: > 0.05%
LC50 CL [2]: 0.00075%
LC50 MW [3]: > 0.01%
LC50 HF [4]: > 100 µg
LC50 TBW E [5]: > 0.1%

C#CCc1c(F)c(F)c(COC(=Nc2ccc3c(c2)OCO3)C(C)C)c(F)c1F [Compound 547]
LC50 LH [1]: < 0.05%
LC50 CL [2]: 0.0005%
LC50 MW [3]: > 0.01%
LC50 HF [4]: < 100 µg
LC50 TBW E [5]: 0.05%

CC(C)C(=Nc1cccc(Br)c1)OCc1cccc(Oc2ccccc2)c1 [Compound 128]
LC50 LH [1]: 0.003%
LC50 CL [2]: 0.005%
LC50 MW [3]: > 0.01%
LC50 HF [4]: 4.5 µg
LC50 TBW E [5]: 0.037%

Cc1ccc(N=C(OCc2ccc(F)c(Oc3ccc(F)cc3)c2)C(C)C)cc1F [Compound 355]
LC50 LH [1]: < 0.05%
LC50 CL [2]: > 0.1%
LC50 MW [3]: > 0.01%
LC50 HF [4]: < 100 µg
LC50 TBW E [5]: > 0.1%

COC(=O)c1ccc(N=C(OCc2cccc(Oc3ccccc3)c2)C(C)C)cc1 [Compound 151]
LC50 LH [1]: > 0.05%
LC50 CL [2]: 0.009%
LC50 MW [3]: > 0.01%
LC50 HF [4]: 38 µg
LC50 TBW E [5]: > 0.1%

C#CCc1c(F)c(F)c(COC(=Nc2cccc(C(F)(F)F)c2)C(C)C)c(F)c1F [Compound 546]
LC50 LH [1]: < 0.05%
LC50 CL [2]: 0.0001%
LC50 MW [3]: 0.0032%
LC50 HF [4]: < 100 µg
LC50 TBW E [5]: > 0.1%

CC(C)C(=Nc1ccc(F)c(Cl)c1)OCc1cccc(Oc2ccc(Br)cc2)n1 [Compound 492]
LC50 LH [1]: > 0.05%
LC50 CL [2]: 0.00028%
LC50 MW [3]: > 0.01%
LC50 HF [4]: 15 µg
LC50 TBW E [5]: 0.015%

CC(C)C(=Nc1ccc2c(c1)OCO2)OCc1cccc(Oc2ccc(C(C)(C)C)cc2)c1 [Compound 367]
LC50 LH [1]: > 0.05%
LC50 CL [2]: < 0.1%
LC50 MW [3]: > 0.01%
LC50 HF [4]: > 100 µg
LC50 TBW E [5]: > 0.1%

CCS(=O)(=O)c1ccc(N=C(OCc2cccc(Oc3ccccc3)c2)C(C)C)cc1Cl [Compound 112]
LC50 LH [1]: > 0.05%
LC50 CL [2]: 0.025%
LC50 MW [3]: > 0.01%
LC50 HF [4]: > 100 µg
LC50 TBW E [5]: > 0.1%

Fc1ccc(N=C(OCc2cccc(Oc3ccccc3)c2)C(F)F)cc1 [Compound 50]
LC50 LH [1]: > 0.05%
LC50 CL [2]: 0.02%
LC50 MW [3]: > 0.01%
LC50 HF [4]: 43 µg
LC50 TBW E [5]: > 0.05%
